Patent publication EP4426265B1, “OPHTHALMIC COMPOSITION COMPRISING A LUBRICANT AGENT AND VERBASCOSIDE, AND SAID COMPOSITION FOR USE IN THE PREVENTIVE OR CURATIVE TREATMENT OF A CORNEAL EPITHELIAL DEFECT AND/OR A CONJUNCTIVAL DEFECT IN A SUBJECT” (NOVAX PHARMA S.A.M., priority 2021, dated 2023)

Conditions: not told

percentage average value (%av) of permeability | SMILES
0.9% | OB(O)O [Boric acid]
not measurable | C[C@@H]1O[C@@H](O[C@@H]2[C@@H](O)[C@H](OCCc3ccc(O)c(O)c3)O[C@H](CO)[C@H]2OC(=O)/C=C/c2ccc(O)c(O)c2)[C@H](O)[C@H](O)[C@H]1O [VERBASCOSIDE, Verbascoside]
